Where a name gives a salt, the structure may show the parent alone. Read-outs that look alike come from different tables or passages of the source.
Legend:
[1] = system: Staphylococcus aureus; experiment: microbe, parasite or virus in culture; type: cell-based
[2] = system: Staphlococcus epidermidis; experiment: Gyrase MIC, microdilution broth method (Protocol 1); type: cell-based, Staphylococcus epidermidis; conditions: 35 isolates tested; for MIC90: Staphylococcus epidermidis
[3] = system: Neisseria meningitidis; experiment: Gyrase MIC, agar dilution method (Protocol 3); type: cell-based; conditions: 12 isolates tested
[4] = Pharmacokinetics, monkey oral study; type: in vivo, cynomolgus monkeys; conditions: for AUC: male, cynomolgus monkey, plasma, po, monkey plasma, label = analyte
Source text: (§1) Pharmacokinetic Data Analysis.
(§2) Statistical Data Analysis.
(§3) Plasma concentration vs. time data was subjected to noncompartmental pharmacokinetic (PK) analysis.

[5] = Pharmacokinetics, rat oral study; type: in vivo, Sprague Dawley rats; conditions: male, Sprague Dawley, label = analyte; for Cmax: read-out: Cmax/C0
Source text: as §1, §2, §3

[6] = Aqueous solubility study; type: physicochemical
Protocol: The aqueous solubilities of compound 23 and compound W were determined according to the following procedure.
Preparation of Samples. Aqueous samples of each compound were prepared as follows. Compounds were weighed (20-30 mg compound) in 4 ml clear vials prior to adding water (0.5 mL) and stirring by magnetic stirrer. 1.0N HCl was added to the suspension to adjust the pH to the desired range. After stirring for 96 hours at room temperature, the suspension was filtered through a 0.22 micron filter (Millipore, Ultrafree centrifugal filters, Durapore PVDF 0.22 μm, Cat# UFC30GVNB). The filtrate was collected and the pH measured with a pH meter.
Preparation of Standard Solutions. […]
Solubility Analysis. Aliquots of each sample and each standard solution were analyzed by HPLC analysis (Agilent 1100, injection volume 10 μL, wavelength 271 nm, column XTerra® Phenyl 5 μm, 4.6×50 mm, Part No. 186001144, mobile phase: A: 0.1% TFA in water 0.1% TFA in AcN). […] Standard curves were obtained by plotting the average of the peak area from the HPLC versus the concentrations of the standard solutions (with appropriate corrections of the weights of the standards based on total water content of the solid as determined by elemental analysis). The concentration of each sample was calculated from the peak area of the aqueous sample from the HPLC results and the slope and intercept of the standard curves. […]

[7] = ATCC29213, Staphylococcus aureus ATCC 29213, Protocol 1, read-out: MIC
[8] = ATCC29213, Staphylococcus aureus ATCC 29213 GyrB T173I, Protocol 1
[9] = ATCC29213, Staphylococcus aureus ATCC 29213 with Mouse Serum, Protocol 1, read-out: MIC
[10] = ATCC29213, Staphylococcus aureus ATCC 29213 with Rat Serum, Protocol 1, read-out: MIC
[11] = 100 mg/kg, Compound W dosed PO 100 mg/kg in 0.5% MC, read-out: AUCextrap
[12] = plasma, 30 mg/kg, Compound W dosed orally 30 mg/kg in 0.5% MC
[13] = plasma, 100 mg/kg, Compound W dosed orally 100 mg/kg in 0.5% MC
[14] = plasma, 300 mg/kg, Compound W dosed orally 300 mg/kg in 0.5% MC
[15] = plasma, 300 mg/kg, Compound W dosed orally 300 mg/kg in 20% CAPT, 1% HPMC-AS, 1% PVP

CCNC(=O)Nc1nc2cc(-c3cnc(C(C)(C)O)nc3)c(F)c([C@H]3CCCO3)c2[nH]1 [Compound 23A, methanesulfonic acid salt of 1-ethyl-3-[6-fluoro-5-[2-(1-hydroxy-1-methyl-ethyl)pyrimidin-5-yl]-7-[(2R)-tetrahydrofuran-2-yl]-1H-benzimidazol-2-yl]urea]
MIC90 ([1]; 67 isolates tested, Protocol 1): 0.03 mg/L
MIC [1, 7]: 0.021 mg/L
MIC [1, 8]: 0.3 mg/L
MIC [1, 9]: 0.5 mg/L
MIC [1, 10]: 0.18 mg/L
MIC Range [2]: 0.008 to 0.03 mg/L
MIC90 [2]: 0.03 mg/L
MIC90 [3]: 0.03 mg/L
MIC Range [3]: 0.008 to 0.06 mg/L

CCNC(=O)Nc1nc2cc(-c3cnc(C(C)(C)O)nc3)cc([C@H]3CCCO3)c2[nH]1 [Compound 13, methanesulfonic acid salt of 1-ethyl-3-[5-[2-(1-hydroxy-1-methyl-ethyl)pyrimidin-5-yl]-7-[(2R)-tetrahydrofuran-2-yl]-1H-benzimidazol-2-yl]urea]
MIC90 ([1]; 67 isolates tested, Protocol 1): 0.25 mg/L
MIC Range ([1]; 67 isolates tested, Protocol 1): 0.03 to 0.5 mg/L
MIC [1, 7]: 0.13 mg/L
MIC [1, 8]: 1.29 mg/L
MIC ([1]; ATCC29213, Staphylococcus aureus ATCC 29213 with Human Serum, Protocol 1, read-out: MIC): 0.31 mg/L
MIC [1, 9]: 2 mg/L
MIC [1, 10]: 0.53 mg/L
MIC Range [2]: 0.03 to 0.25 mg/L
MIC90 [2]: 0.12 mg/L
MIC90 [3]: 0.12 mg/L
MIC Range [3]: 0.015 to 0.25 mg/L

CCNC(=O)Nc1nc2cc(-c3cnc(C(C)(C)O)nc3)c(F)c([C@H]3CCCO3)c2[nH]1 [Compound 23, 1-ethyl-3-[6-fluoro-5-[2-(1-hydroxy-1-methyl-ethyl)pyrimidin-5-yl]-7-[(2R)-tetrahydrofuran-2-yl]-1H-benzimidazol-2-yl]urea]
AUC ([4]; 30 mg/kg, Compound W dosed PO 30 mg/kg in 0.5% MC, read-out: AUCextrap): 24.8 µg·h/mL
AUC [4, 11]: 76.9 µg·h/mL
AUC ([4]; 300 mg/kg, Compound W dosed PO 300 mg/kg in 0.5% MC, read-out: AUCextrap): 155 µg·h/mL
AUC ([5]; in vivo, 3 mg/kg, rat plasma, Compound W dosed orally 3 mg/kg in 0.5% MC, read-out: AUC): 0.311 µg·h/mL
Cmax ([5]; in vivo, 3 mg/kg, rat plasma, Compound W dosed orally 3 mg/kg in 0.5% MC): 0.117 µg/mL
AUC ([5]; in vivo, 30 mg/kg, rat plasma, Compound W dosed orally 30 mg/kg in 0.5% MC, read-out: AUC): 22.5 µg·h/mL
Cmax ([5]; in vivo, 30 mg/kg, rat plasma, Compound W dosed orally 30 mg/kg in 0.5% MC): 2.9 µg/mL
AUC ([5]; in vivo, 100 mg/kg, rat plasma, Compound W dosed orally 100 mg/kg in 0.5% MC, read-out: AUC): 77.1 µg·h/mL
Cmax ([5]; in vivo, 100 mg/kg, rat plasma, Compound W dosed orally 100 mg/kg in 0.5% MC): 6.6 µg/mL
AUC ([5]; in vivo, 300 mg/kg, rat plasma, Compound W dosed orally 300 mg/kg in 0.5% MC, read-out: AUC): 223 µg·h/mL
Cmax ([5]; in vivo, 300 mg/kg, rat plasma, Compound W dosed orally 300 mg/kg in 0.5% MC): 11.7 µg/mL
AUC ([5]; in vivo, 300 mg/kg, rat plasma, Compound W dosed orally 300 mg/kg in 20% CAPT, 1% HPMC-AS, 1% PVP, read-out: AUC): 295 µg·h/mL
Cmax ([5]; in vivo, 300 mg/kg, rat plasma, Compound W dosed orally 300 mg/kg in 20% CAPT, 1% HPMC-AS, 1% PVP): 16.2 µg/mL
AUC ([5]; plasma, 3 mg/kg, Compound W dosed orally 3 mg/kg in 0.5% MC, read-out: AUCextrap): 0.314 µg·h/mL
AUC ([5]; plasma, 30 mg/kg, Compound W dosed orally 30 mg/kg in 0.5% MC, read-out: AUCextrap): 22.6 µg·h/mL
AUC ([5]; plasma, 100 mg/kg, Compound W dosed orally 100 mg/kg in 0.5% MC, read-out: AUCextrap): 77.4 µg·h/mL
Solubility ([6]; 96 h): <0.001 mg/mL

CCNC(=O)Nc1nc2cc(-c3cnc(C(C)(C)OP(=O)([O-])[O-])nc3)c(F)c([C@H]3CCCO3)c2[nH]1.[Na+].[Na+] [Compound W, disodium (R)-2-(5-(2-(3-ethylureido)-6-fluoro-7-(tetrahydrofuran-2-yl)-1H-benzo[d]imidazol-5-yl)pyrimidin-2-yl)propan-2-yl phosphate]
conversion in vivo into Compound 23 ([4]; in at least rats, dogs and monkeys (all pharmacokinetic studies)): converted in vivo into Compound 23
AUC ([4]; 30 mg/kg, Compound W dosed PO 30 mg/kg in 0.5% MC, read-out: AUC): 0.0453 µg·h/mL
AUC ([4]; 100 mg/kg, Compound W dosed PO 100 mg/kg in 0.5% MC, read-out: AUC): 0.432 µg·h/mL
AUC [4, 11]: 0.437 µg·h/mL
AUC ([4]; 300 mg/kg, Compound W dosed PO 300 mg/kg in 0.5% MC, read-out: AUC): 3.69 µg·h/mL
Tmax [5, 12]: 3.3 h
AUC ([5]; plasma, 30 mg/kg, Compound W dosed orally 30 mg/kg in 0.5% MC, read-out: AUC): 0.178 µg·h/mL
Cmax [5, 12]: 0.022 µg/mL
Tmax [5, 13]: 0.8 h
AUC ([5]; plasma, 100 mg/kg, Compound W dosed orally 100 mg/kg in 0.5% MC, read-out: AUC): 0.061 µg·h/mL
Cmax [5, 13]: 0.021 µg/mL
Tmax [5, 14]: 1.2 h
AUC ([5]; plasma, 300 mg/kg, Compound W dosed orally 300 mg/kg in 0.5% MC, read-out: AUC): 0.324 µg·h/mL
Cmax [5, 14]: 2.33 µg/mL
Tmax [5, 15]: 1.8 h
AUC ([5]; plasma, 300 mg/kg, Compound W dosed orally 300 mg/kg in 20% CAPT, 1% HPMC-AS, 1% PVP, read-out: AUC): 2.37 µg·h/mL
Cmax [5, 15]: 0.6 µg/mL
solubility at 96 h ([6]; aqueous buffer, thermodynamic from solid, water, pH 4.39, crystalline solid form, 96 hours at room temperature): 0.25 mg/mL
